The values that follow come from patent US20230242526A1 (Zentaur Therapeutics International Limited, priority 2020, published 2023).

Series [1] relates to human breast squamous HCC1806 cell line. Nature of the series: CyQUANT Direct cell proliferation assay, HCC1806. The format is cell-based. The following applies: HCC1806, 168 h, 7 days. The source says:
(§1) The human ovarian carcinoma OVCAR3 cell line (ATCC HTB-161™) or human breast squamous HCC1806 cell line (ATCC CRL 2335) were obtained from American Type Culture Collection (ATCC), and maintained in culture media according to the supplier's specification.
(§2) The CyQUANT® Direct Cell Proliferation Assay Kit (Invitrogen™, catalog No. G35012) was utilized to test the inhibitory activities of the CDK2 inhibitors described in this disclosure against OVCAR3 or HCC1806 tumor cells.
(§3) CyQUANT® Direct Cell Proliferation Assay: The spent medium from the purchased tumor cell culture plate was removed and the tumor cells were washed with PBS buffer twice. Trypsin (VWR catalog No. 0458-25G) was added to digest the tumor cells until tumor cells appeared round shaped and to dissociate adherent cells from the plate wall in which they are being cultured. Then RPMI-1640 media (HCC1806, Gibco™ catalog No, A10491-01) with 10% fetal bovine serum (FBS) (Hyclone™ catalog No. SV30160.03), or RPMI-1640 media (OVCAR-3, Gibco™ catalog No. 10370-021) with 20% FBS and 0.01 mg/mL insulin was added to stop the trypsin digestion reaction. The tumor cells were lightly agitated with a liquid transfer pipette to cause tumor cells suspended in the culture media. The cells were counted. The complete medium was used to prepare tumor cell suspension.
(§4) OVCAR3 or HCC1806 cells were seeded at 40 μL/well in 384-well plates in growth media containing FBS and cultured 24 hours in the incubator at 37° C., 5% CO2. […] Compound solutions were added by Agilent Bravo liquid handler. […] The control wells contained the growth medium having 0.1% DMSO. Cells were incubated at 37° C., 5% CO2 for 7 days.
(§5) CYQUANT Direct Cell Proliferation Assay (Molecular Probes, Eugene, Oreg.) was then performed following manufacturer's instructions to prepare the detection reagents. 50 μL of detection reagent was aliquot and added to each well and the cells were incubated at 37° C. for 1 hr.
(§6) The cell culture plates were placed on TECAN M1000 microplate reader to detect the fluorescence intensity at 508 nm excitation and 527 nm emission wavelengths. Graphpad Prism 6.0 software was used for data processing, preparing cell growth curve, calculating percentage inhibition on cell growth. IC50 values were calculated by concentration-response curve fitting utilizing a four-parameter analytical method using GraphPad Prism software.

Series [2] is described as follows: in vitro. The following applies: microsomes. The procedure: (§7) Human liver microsomes (cat. No. 452161), mouse liver microsomes (cat. No. 452701), were purchased from Corning.
(§8) Samples were analyzed using LC-MS/MS using a SCIEX API 4000 mass spectrometer coupled with Agilent HPLC analytical system. After separation on a ZORBAX XDB-C18 column (5 μm, 50×2.1 mm, column No. 50-282) using an acetonitrile-water gradient system, peaks were analyzed by mass spectroscopy (MS) using ESI ionization in Q1 and Q3 scan mode.
(§9) The LC and MS are all controlled by Analyst software.
(§10) The liver microsomes were incubated with 1.0 μM of the testing compound at 37° C. The incubation mixture contained 100 mM PBS buffer (pH=7.4), 3 mM MgCl2 and 1 mM NADPH. The concentration of liver microsome in the incubation mixture was 0.5 mg/mL for testing compound, and 0.2 mg/mL for MDZ and the total volume is 0.2 mL. […] Aliquots were withdrawn at time points of 0 min, 5 min and 20 min for MDZ. The reactions were terminated by transferring the aliquots to a methanol solution containing the internal standard […] for analytical quantification. The quenched samples were analyzed by LC-MS/MS. The incubations were carried out in duplicates. The metabolic stability of the testing compounds by the liver microsomes of human and mice is expressed as elimination half-life (t1/2). The results are shown as the means of duplicate determinations±SD.

Series [3] can be described thus: in vitro. The following applies: microsomes. The method, then:
as §7, §8, §9, §10
The source holds these as a separate data set.

For series [4], the system named is human ovarian carcinoma OVCAR3 cell line. Nature of the series: CyQUANT Direct cell proliferation assay, OVCAR-3. Type of series: cell-based. The following applies: OVCAR-3, 168 h, 7 days.
Source text: as §1, §2, §3, §4, §5, §6

The target of a further series is CDK9/Cyclin T1 (Homo sapiens, UniProt P50750). Description: CDK9/Cyclin T1 kinase assay. Type of series: biochemical. The method, then:
(1). Recombinant enzymes CDK1, CDK2, CDK4, CDK6, CDK9, cyclin B1, cyclin A2, cyclin D3, cyclin E1, cyclin T1 were cloned and purified at Wuxi Biortus Biochemistry Co. Ltd.
(8) Peptide substrate-CDK9 (Ahx-GSRTPMY-NH2, Scilight-Peptide, Cat. C0769102).
The test compounds were dissolved and diluted in DMSO. A stock DMSO solution of the test compound of the invention was prepared by dissolving the compound in DMSO to form a 10 mM solution.
2 μL of testing compound solutions and 5 μL of enzyme solution were added into the 384-well microplate followed by a 10 minute incubation. The reaction was then initiated by the addition of 5 μL of peptide substrate and ATP mixture solution and incubated at 27° C. for 30 minutes. The enzyme reaction in each well was terminated by adding 4 μL of 120 mM EDTA solution. Each assay was carried out in duplicates.
DMSO was used as negative control (0%) for enzyme activity. 20 μM Staurosporine was used as positive control (100%) for enzyme activity.
Plates were read for fluorescence on a Caliper EZ Reader II by separating the fluorescent labeled substrate from the enzyme phosphorylation product by electrophoresis. Data were collected and analyzed using GraphPad Prism version 6.0 software.
Dose-response curves were plotted from inhibition data generated, each in duplicate, from 10 point serial dilutions of inhibitory compounds. Concentration of compound was plotted against % kinase activity. To generate IC50 values, the dose-response curves were then fitted to a standard sigmoidal curve and IC50 values were derived by nonlinear regression analysis.

Sequence of CDK9/Cyclin T1 (P50750 whole entry): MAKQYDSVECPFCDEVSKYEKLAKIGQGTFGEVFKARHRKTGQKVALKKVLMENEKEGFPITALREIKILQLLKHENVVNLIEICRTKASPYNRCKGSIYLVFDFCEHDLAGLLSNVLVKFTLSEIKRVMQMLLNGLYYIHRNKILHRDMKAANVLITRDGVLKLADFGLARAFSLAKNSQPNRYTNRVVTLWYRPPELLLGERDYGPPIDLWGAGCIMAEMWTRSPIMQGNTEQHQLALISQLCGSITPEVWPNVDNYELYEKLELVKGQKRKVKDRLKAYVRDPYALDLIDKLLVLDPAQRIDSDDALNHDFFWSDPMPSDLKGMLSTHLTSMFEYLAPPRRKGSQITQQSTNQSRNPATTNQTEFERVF
Sequence of CDK9/Cyclin T1 (O60563 whole entry partner): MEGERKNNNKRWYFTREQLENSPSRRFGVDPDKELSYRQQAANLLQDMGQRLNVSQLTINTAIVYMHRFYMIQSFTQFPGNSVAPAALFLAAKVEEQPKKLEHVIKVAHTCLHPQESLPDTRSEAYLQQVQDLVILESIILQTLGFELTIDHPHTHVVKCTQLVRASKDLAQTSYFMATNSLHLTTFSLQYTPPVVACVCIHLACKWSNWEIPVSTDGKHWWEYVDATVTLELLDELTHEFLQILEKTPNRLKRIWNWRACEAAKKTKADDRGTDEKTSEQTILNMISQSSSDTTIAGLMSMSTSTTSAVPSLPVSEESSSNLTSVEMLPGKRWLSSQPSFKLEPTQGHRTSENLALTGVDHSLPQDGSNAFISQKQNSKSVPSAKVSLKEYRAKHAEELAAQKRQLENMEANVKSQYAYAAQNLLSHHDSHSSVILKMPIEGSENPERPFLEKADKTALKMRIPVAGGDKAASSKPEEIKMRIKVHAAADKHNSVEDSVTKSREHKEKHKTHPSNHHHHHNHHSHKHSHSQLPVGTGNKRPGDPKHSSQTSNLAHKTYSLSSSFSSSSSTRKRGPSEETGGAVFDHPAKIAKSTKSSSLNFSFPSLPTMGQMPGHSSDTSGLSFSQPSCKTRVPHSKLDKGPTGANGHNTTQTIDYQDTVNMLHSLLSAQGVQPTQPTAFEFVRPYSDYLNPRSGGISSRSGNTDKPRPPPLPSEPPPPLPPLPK

As for `[2H]C(F)(F)c1cc2cnc(NC3CCN(S(=O)(=O)C([2H])([2H])[2H])CC3)nc2n([C@@H]2CCC[C@@]2(C)O)c1=O` [Comp. 92, (−)-6-(difluoromethyl-d)-8-((1R,2R)-2-hydroxy-2-methylcyclopentyl)-2-((1-((methyl-d3)sulfonyl)piperidin-4-yl)amino)pyrido[2,3-d]pyrimidin-7(8H)-one], the IC50 (usually the concentration that inhibits the measured activity by half) in series [1] stood at 67.7 nM. This counts as double-digit nanomolar.
`[2H]C1([2H])CN(S(C)(=O)=O)CC([2H])([2H])C1Nc1ncc2ccc(=O)n([C@@H]3CCC[C@@]3(C)O)c2n1` [Comp. 61, (−)-8-((1R,2R)-2-hydroxy-2-methylcyclopentyl)-2-((1-(methylsulfonyl)piperidin-4-yl-3,3,5,5-d4)amino)pyrido[2,3-d]pyrimidin-7(8H)-one]: the half-life (commonly the time in which the quantity being followed falls by half) at 1 μM was determined as 23.5 min in the series “in vitro [2]” (mouse, pH 7.4, t1/2 mouse) and 578 min in the series “in vitro [3]” (human, pH 7.4, t1/2 human). In series [1], this molecule displayed an IC50 of 69.2 nM.
As to `[2H]C(F)(F)c1cc2cnc(NC3CCN(S(C)(=O)=O)CC3)nc2n(C2CCCC2(C)O)c1=O` (racemic) [Comp. 20, (±)-6-(difluoromethyl-d)-8-(2-hydroxy-2-methylcyclopentyl)-2-((1-(methylsulfonyl)piperidin-4-yl)amino)pyrido[2,3-d]pyrimidin-7(8H)-one], the IC50 in series [4] is 104 nM; on CDK9/Cyclin T1, 6000 nM; in series [1], 125 nM.
For `CCN1CCN(Cc2ccc(Nc3ncc(F)c(-c4cc(F)c5nc(C)n(C(C)C)c5c4)n3)nc2)CC1` [LY2835219], the IC50 in series [4] stood at 4370 nM; in series [1], 161 nM.
Molecule `[2H]C([2H])([2H])S(=O)(=O)N1CCC(Nc2ncc3ccc(=O)n([C@@H]4CCC[C@@]4(C)O)c3n2)CC1` [Comp. 55, (−)-8-((1R,2R)-2-hydroxy-2-methylcyclopentyl)-2-((1-((methyl-d3)sulfonyl)piperidin-4-yl)amino)pyrido[2,3-d]pyrimidin-7(8H)-one] showed a half-life at 1 μM in “in vitro [3]” (human, pH 7.4, t1/2 human) of 346 min.
Consider `C[C@@]1(O)CCC[C@H]1n1c(=O)ccc2cnc(NC3CCN(S(C)(=O)=O)CC3)nc21` (racemic) [Comp. 1, (±)-8-(2-hydroxy-2-methylcyclopentyl)-2-((1-(methylsulfonyl)piperidin-4-yl)amino)pyrido[2,3-d]pyrimidin-7(8H)-one, reference compound], for which the IC50 was 54.3 nM in series [4] and 86.5 nM in series [1].
As for `C[C@@]1(O)CCC[C@H]1n1c(=O)c(C(F)F)cc2cnc(NC3CCN(S(C)(=O)=O)CC3)nc21` (racemic) [Comp. 2, (±)-8-(2-hydroxy-2-methylcyclopentyl)-6-difluoromethyl-2-((1-(methylsulfonyl)piperidin-4-yl)amino)pyrido[2,3-d]pyrimidin-7(8H)-one, reference compound], the IC50 in series [1] was 59 nM.
Take `[2H]C1(Nc2ncc3ccc(=O)n([C@@H]4CCC[C@@]4(C)O)c3n2)CCN(S(C)(=O)=O)CC1` [Comp. 47, (−)-8-((1R,2R)-2-hydroxy-2-methylcyclopentyl)-2-((1-(methylsulfonyl)piperidin-4-yl-4-d)amino)pyrido[2,3-d]pyrimidin-7(8H)-one]: the half-life at 1 μM in “in vitro [2]” (mouse, pH 7.4, t1/2 mouse) was determined as 24.5 min; in “in vitro [3]” (human, pH 7.4, t1/2 human), 990 min.
Take `Cc1cc2cnc(NC3CCN(S(C)(=O)=O)CC3)nc2n([C@@H]2CCC[C@@]2(C)O)c1=O` (racemic) [Comp. 3, (±)-8-(2-hydroxy-2-methylcyclopentyl)-6-methyl-2-((1-(methylsulfonyl)piperidin-4-yl)amino)pyrido[2,3-d]pyrimidin-7(8H)-one, reference compound]: the 50% inhibitory concentration (IC50) worked out at 38.5 nM in series [4] and 53.4 nM in series [1].
In turn, `[2H]C1([2H])CN(S(C)(=O)=O)CC([2H])([2H])C1Nc1ncc2cc(C)c(=O)n([C@@H]3CCC[C@@]3(C)O)c2n1` [Comp. 67, (−)-8-((1R,2R)-2-hydroxy-2-methylcyclopentyl)-6-methyl-2-((1-(methylsulfonyl)piperidin-4-yl-3,3,5,5-d4)amino)pyrido[2,3-d]pyrimidin-7(8H)-one] registered an IC50 in series [1] of 65.9 nM.
Turning to `C[C@@]1(O)CCC[C@H]1n1c(=O)ccc2cnc(NC3CCN(S(C)(=O)=O)CC3)nc21` [Comp. 6, (−)-8-(2-hydroxy-2-methylcyclopentyl)-2-((1-(methylsulfonyl)piperidin-4-yl)amino)pyrido[2,3-d]pyrimidin-7(8H)-one, reference compound], the half-life at 1 μM in the series “in vitro [2]” (mouse, pH 7.4, t1/2 mouse) came to 24.2 min; in the series “in vitro [3]” (human, pH 7.4, t1/2 human), 693 min. The figures for the IC50 (in series [4]; against CDK9/Cyclin T1; in series [1]) were 39.2 nM, 6450 nM and 56.1 nM, respectively.
Consider `[2H]C([2H])([2H])S(=O)(=O)N1CCC(Nc2ncc3cc(C(F)F)c(=O)n([C@@H]4CCC[C@@]4(C)O)c3n2)CC1` [Comp. 85, (−)-6-(difluoromethyl)-8-((1R,2R)-2-hydroxy-2-methylcyclopentyl)-2-((1-((methyl-d3)sulfonyl)piperidin-4-yl)amino)pyrido[2,3-d]pyrimidin-7(8H)-one], for which, in series [1], it took 84.5 nM to reach half-maximal inhibition (IC50).
As to `[2H]C1(Nc2ncc3cc(C(F)F)c(=O)n([C@@H]4CCC[C@@]4(C)O)c3n2)CCN(S(C)(=O)=O)CC1` [Comp. 99, (−)-6-(difluoromethyl)-8-((1R,2R)-2-hydroxy-2-methylcyclopentyl)-2-((1-(methylsulfonyl)piperidin-4-yl-4-d)amino)pyrido[2,3-d]pyrimidin-7(8H)-one], the IC50 in series [1] came to 65.5 nM. This IC50 and that of the molecule before are within 1.5-fold of each other.
For the molecule `[2H]C([2H])([2H])c1cc2cnc(NC3CCN(S(C)(=O)=O)CC3)nc2n(C2CCCC2(C)O)c1=O` (racemic) [Comp. 11, (±)-8-(2-hydroxy-2-methylcyclopentyl)-6-(methyl-d3)-2-((1-(methylsulfonyl)piperidin-4-yl)amino)pyrido[2,3-d]pyrimidin-7(8H)-one], the IC50 worked out at 21.3 nM in series [4] and 28.6 nM in series [1].
Consider `[2H]C([2H])([2H])S(=O)(=O)N1CCC(Nc2ncc3cc(C)c(=O)n([C@@H]4CCC[C@@]4(C)O)c3n2)CC1` [Comp. 74, (−)-8-((1R,2R)-2-hydroxy-2-methylcyclopentyl)-6-methyl-2-((1-((methyl-d3)sulfonyl)piperidin-4-yl)amino)pyrido[2,3-d]pyrimidin-7(8H)-one], for which the IC50 in series [1] came out at 83.7 nM.
As for `Cc1ncc2n1-c1ccc(Cl)cc1C(c1ccccc1F)=NC2` [Midazolam, reference compound], the values for the half-life at 1 μM in “in vitro [2]” (pH 7.4) and in “in vitro [3]” (pH 7.4) were 4.59 min and 16.3 min, respectively.
